Measured values published in ChEMBL document CHEMBL3991601, “The target landscape of clinical kinase drugs” (Science, 2017).
pKd: −log10 of the molar value. The source made the active and inactive calls.

What was measured:
ADP/ATP translocase 2 = target: T1, ADP/ATP translocase 2 (Homo sapiens, UniProt P05141)
T1 sequence (P05141 whole entry): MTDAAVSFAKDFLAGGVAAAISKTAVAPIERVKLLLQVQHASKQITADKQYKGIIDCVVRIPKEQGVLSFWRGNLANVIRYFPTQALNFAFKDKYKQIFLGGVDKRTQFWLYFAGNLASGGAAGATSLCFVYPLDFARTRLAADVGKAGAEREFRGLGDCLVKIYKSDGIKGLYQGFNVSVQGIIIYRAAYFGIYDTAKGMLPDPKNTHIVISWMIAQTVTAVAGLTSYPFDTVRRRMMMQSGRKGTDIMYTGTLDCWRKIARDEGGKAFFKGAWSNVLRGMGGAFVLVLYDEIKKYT

[1] = target: Mitogen-activated protein kinase kinase kinase kinase 1 (Homo sapiens, UniProt Q92918)
[2] = target: Bone morphogenetic protein receptor type-1A (Homo sapiens, UniProt P36894)
[3] = target: Mitogen-activated protein kinase 1 (Homo sapiens, UniProt P28482)
[4] = target: T2, Serine/threonine-protein kinase LATS1 (Homo sapiens, UniProt O95835)
T2 sequence (O95835 whole entry): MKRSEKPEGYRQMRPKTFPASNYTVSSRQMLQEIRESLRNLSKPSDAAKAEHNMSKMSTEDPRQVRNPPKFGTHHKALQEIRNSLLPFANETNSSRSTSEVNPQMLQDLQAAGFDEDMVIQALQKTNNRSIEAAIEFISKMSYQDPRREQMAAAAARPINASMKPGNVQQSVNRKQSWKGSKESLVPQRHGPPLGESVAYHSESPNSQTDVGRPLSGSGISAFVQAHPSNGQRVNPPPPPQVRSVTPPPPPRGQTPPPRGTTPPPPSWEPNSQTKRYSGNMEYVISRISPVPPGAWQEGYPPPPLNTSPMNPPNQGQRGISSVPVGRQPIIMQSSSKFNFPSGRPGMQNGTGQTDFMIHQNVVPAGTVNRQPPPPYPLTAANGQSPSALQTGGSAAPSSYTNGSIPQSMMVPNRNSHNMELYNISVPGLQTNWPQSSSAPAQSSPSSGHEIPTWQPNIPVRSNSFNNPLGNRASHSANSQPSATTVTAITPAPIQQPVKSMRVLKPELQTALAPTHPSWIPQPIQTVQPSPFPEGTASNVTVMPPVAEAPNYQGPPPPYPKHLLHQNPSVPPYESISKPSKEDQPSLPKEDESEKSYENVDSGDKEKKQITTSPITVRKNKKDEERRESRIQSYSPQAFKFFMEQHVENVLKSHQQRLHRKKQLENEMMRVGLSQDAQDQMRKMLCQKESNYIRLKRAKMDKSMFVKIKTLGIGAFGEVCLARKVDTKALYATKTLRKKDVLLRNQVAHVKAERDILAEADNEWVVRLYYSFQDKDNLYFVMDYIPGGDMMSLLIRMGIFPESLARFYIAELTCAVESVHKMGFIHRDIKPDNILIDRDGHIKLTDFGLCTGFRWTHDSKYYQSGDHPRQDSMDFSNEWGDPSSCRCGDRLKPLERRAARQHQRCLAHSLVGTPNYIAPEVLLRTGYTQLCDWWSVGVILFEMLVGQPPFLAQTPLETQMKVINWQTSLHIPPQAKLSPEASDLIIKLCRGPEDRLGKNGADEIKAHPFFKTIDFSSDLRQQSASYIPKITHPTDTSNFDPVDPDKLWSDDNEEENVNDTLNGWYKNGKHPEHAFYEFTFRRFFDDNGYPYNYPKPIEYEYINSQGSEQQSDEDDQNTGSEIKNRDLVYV

[5] = target: Ribosomal protein S6 kinase alpha-5 (Homo sapiens, UniProt O75582)
[6] = target: Serine/threonine-protein kinase/endoribonuclease IRE2 (Homo sapiens, UniProt Q76MJ5)
[7] = target: Receptor-interacting serine/threonine-protein kinase 3 (Homo sapiens, UniProt Q9Y572)
Actin-related protein 2 = Actin-related protein 2 (Homo sapiens, UniProt P61160)
Aurora kinase A = target: T3, Aurora kinase A (Homo sapiens, UniProt O14965)
T3 sequence (O14965 whole entry): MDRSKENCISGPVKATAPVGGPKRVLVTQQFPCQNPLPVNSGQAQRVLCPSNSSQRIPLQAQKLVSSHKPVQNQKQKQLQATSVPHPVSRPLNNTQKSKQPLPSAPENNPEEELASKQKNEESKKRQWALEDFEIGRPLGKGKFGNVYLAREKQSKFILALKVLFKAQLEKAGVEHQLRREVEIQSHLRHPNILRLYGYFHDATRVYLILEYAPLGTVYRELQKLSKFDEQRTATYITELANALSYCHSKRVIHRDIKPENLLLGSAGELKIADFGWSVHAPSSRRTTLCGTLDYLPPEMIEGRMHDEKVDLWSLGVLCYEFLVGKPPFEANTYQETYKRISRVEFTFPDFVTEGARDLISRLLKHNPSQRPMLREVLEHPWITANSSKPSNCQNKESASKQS
Note: in the data inactive means no Kd found up to 30 µM.

Chain of Mitogen-activated protein kinase kinase kinase kinase 1 (Q92918 whole entry): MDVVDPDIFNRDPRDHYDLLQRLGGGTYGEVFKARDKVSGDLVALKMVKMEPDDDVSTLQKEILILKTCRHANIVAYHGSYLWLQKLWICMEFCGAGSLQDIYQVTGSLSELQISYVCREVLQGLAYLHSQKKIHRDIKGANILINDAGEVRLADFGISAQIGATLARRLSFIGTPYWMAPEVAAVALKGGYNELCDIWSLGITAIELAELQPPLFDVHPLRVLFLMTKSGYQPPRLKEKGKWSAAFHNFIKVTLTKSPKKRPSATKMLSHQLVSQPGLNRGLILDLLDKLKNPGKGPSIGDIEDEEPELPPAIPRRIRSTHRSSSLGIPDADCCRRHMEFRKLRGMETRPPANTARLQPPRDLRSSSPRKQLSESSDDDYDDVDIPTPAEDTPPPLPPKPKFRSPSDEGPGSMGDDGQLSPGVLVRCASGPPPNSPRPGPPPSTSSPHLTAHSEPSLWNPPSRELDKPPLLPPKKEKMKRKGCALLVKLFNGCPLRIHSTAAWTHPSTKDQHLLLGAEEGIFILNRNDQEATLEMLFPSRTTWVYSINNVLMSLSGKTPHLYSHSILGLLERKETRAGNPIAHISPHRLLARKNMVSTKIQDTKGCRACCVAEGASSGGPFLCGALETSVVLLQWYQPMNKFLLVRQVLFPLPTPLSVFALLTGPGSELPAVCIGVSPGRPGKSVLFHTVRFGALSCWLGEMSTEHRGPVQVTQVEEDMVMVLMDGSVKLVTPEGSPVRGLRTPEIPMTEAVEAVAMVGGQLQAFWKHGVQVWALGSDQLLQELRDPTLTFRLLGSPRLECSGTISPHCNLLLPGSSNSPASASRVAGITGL
Chain of Ribosomal protein S6 kinase alpha-5 (O75582 whole entry): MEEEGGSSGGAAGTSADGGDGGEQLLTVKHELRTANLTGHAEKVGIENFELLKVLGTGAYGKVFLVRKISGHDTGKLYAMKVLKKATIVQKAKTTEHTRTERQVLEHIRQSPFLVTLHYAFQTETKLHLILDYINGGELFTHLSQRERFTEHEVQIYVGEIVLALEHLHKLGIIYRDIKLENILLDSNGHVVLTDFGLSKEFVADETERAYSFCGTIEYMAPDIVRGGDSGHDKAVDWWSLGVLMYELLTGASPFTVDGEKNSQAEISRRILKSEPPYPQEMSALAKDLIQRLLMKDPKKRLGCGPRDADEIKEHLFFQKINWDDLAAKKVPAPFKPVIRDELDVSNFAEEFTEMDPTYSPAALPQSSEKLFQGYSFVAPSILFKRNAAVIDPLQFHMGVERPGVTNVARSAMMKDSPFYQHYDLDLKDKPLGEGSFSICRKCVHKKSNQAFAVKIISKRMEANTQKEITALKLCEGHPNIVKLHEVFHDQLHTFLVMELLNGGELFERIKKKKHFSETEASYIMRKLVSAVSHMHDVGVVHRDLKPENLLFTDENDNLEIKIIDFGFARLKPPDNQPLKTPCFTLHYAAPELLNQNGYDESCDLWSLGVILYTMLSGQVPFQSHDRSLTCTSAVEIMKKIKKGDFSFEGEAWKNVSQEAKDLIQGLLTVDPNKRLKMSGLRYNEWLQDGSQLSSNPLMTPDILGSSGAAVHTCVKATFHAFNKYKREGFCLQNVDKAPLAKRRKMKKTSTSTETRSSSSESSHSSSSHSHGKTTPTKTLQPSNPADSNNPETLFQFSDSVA
Chain of Serine/threonine-protein kinase/endoribonuclease IRE2 (Q76MJ5 whole entry): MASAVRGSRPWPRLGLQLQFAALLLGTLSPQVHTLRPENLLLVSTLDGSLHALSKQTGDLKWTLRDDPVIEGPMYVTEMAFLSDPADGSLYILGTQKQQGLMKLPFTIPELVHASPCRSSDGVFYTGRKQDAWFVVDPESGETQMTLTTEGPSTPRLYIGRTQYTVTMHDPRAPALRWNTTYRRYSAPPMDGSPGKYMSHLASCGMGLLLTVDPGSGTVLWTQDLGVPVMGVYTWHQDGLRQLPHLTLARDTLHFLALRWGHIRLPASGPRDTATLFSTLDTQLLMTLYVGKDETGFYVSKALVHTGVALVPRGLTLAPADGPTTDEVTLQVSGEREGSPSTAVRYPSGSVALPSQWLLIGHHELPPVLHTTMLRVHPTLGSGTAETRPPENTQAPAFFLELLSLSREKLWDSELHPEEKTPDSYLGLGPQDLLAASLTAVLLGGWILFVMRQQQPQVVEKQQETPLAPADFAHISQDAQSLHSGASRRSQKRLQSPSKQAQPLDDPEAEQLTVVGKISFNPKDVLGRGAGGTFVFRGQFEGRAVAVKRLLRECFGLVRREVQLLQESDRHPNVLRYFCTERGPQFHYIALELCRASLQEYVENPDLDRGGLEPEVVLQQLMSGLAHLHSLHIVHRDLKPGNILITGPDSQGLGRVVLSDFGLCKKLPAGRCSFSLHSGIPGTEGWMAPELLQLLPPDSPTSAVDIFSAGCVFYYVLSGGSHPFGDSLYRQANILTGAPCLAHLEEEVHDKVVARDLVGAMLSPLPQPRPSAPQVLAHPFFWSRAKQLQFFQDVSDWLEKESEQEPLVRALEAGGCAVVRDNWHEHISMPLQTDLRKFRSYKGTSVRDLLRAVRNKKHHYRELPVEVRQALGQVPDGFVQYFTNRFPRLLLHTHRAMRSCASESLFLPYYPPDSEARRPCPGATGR
Chain of Mitogen-activated protein kinase 1 (P28482 whole entry): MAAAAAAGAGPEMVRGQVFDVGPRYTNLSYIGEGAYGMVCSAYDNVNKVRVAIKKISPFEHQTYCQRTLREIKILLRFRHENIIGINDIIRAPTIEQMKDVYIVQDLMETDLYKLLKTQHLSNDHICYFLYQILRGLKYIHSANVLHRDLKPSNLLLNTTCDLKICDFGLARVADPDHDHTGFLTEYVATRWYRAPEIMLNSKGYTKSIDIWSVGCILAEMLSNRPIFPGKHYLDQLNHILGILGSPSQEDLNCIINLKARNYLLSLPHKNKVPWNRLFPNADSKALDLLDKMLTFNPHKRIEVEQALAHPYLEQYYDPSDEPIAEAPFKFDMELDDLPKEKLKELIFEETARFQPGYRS
Chain of Bone morphogenetic protein receptor type-1A (P36894 whole entry): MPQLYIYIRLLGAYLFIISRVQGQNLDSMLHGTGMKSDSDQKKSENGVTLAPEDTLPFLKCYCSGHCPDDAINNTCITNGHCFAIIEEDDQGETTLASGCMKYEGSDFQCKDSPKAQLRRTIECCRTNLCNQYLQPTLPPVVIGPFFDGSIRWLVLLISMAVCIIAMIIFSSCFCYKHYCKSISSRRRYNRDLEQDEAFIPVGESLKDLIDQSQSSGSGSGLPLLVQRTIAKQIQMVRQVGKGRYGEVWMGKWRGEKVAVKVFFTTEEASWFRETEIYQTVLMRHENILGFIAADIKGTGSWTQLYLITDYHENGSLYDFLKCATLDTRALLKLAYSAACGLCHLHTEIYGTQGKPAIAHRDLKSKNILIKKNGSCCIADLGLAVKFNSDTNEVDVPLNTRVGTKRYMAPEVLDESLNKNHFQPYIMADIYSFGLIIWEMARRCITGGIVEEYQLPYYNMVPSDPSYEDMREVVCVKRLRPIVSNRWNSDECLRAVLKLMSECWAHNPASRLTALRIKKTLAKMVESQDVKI
Chain of Receptor-interacting serine/threonine-protein kinase 3 (Q9Y572 whole entry): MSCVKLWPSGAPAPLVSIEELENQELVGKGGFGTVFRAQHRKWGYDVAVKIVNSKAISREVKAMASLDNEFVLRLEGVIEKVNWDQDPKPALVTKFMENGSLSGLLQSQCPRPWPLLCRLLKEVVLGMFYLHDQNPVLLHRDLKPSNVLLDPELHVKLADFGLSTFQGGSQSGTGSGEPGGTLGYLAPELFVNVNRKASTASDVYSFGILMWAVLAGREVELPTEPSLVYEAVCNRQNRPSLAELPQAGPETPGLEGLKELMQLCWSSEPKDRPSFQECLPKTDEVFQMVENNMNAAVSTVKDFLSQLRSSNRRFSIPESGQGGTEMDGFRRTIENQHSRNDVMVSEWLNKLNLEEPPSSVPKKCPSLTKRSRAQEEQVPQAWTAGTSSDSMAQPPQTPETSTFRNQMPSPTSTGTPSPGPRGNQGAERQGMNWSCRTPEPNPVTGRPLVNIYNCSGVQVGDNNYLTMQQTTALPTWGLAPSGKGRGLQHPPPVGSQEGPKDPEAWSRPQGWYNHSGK

SMILES	Kd (ADP/ATP translocase 2)	Kd [1]	Kd [2]	Kd [3]	Kd [4]	Kd [5]	Kd [6]	Kd [7]	Kd (Actin-related protein 2)	Kd (Aurora kinase A)	pKd (Aurora kinase A)
Cn1cc(-c2[nH]c3cc(NC(=O)[C@H](N)C4CCCCC4)cc4c3c2C=NNC4=O)cn1	> 30 µM (inactive)	> 30 µM (inactive)	0.814 µM (active)	> 30 µM (inactive)	0.363 µM (active)	> 30 µM (inactive)	> 30 µM (inactive)	> 30 µM (inactive)	> 30 µM (inactive)	–	–
CN(C)C/C=C/C(=O)Nc1cc2c(Nc3ccc(F)c(Cl)c3)ncnc2cc1O[C@H]1CCOC1 [AFATINIB]	> 30 µM (inactive)	–	–	–	–	–	> 30 µM (inactive)	> 30 µM (inactive)	> 30 µM (inactive)	–	–
Cc1cc(Nc2nc(N[C@@H](C)c3ncc(F)cn3)ncc2Cl)n[nH]1 [AZD-1480]	> 30 µM (inactive)	> 30 µM (inactive)	> 30 µM (inactive)	> 30 µM (inactive)	> 30 µM (inactive)	> 30 µM (inactive)	> 30 µM (inactive)	> 30 µM (inactive)	> 30 µM (inactive)	–	–
CCN(CCCOc1ccc2c(Nc3cc(CC(=O)Nc4cccc(F)c4)n[nH]3)ncnc2c1)CCOP(=O)(O)O [BARASERTIB]	> 30 µM (inactive)	> 30 µM (inactive)	> 30 µM (inactive)	> 30 µM (inactive)	> 30 µM (inactive)	> 30 µM (inactive)	> 30 µM (inactive)	> 30 µM (inactive)	> 30 µM (inactive)	–	–
C[C@@]1(C(=O)Nc2ccc(F)nc2)CCCN1c1nc(Nc2cc(C3CC3)n[nH]2)c2cccn2n1 [BMS-754807]	> 30 µM (inactive)	–	–	–	–	–	–	> 30 µM (inactive)	> 30 µM (inactive)	–	–
CCOc1ccn(-c2ccc(F)cc2)c(=O)c1C(=O)Nc1ccc(Oc2ccnc(N)c2Cl)c(F)c1 [BMS-777607]	> 30 µM (inactive)	> 30 µM (inactive)	> 30 µM (inactive)	> 30 µM (inactive)	> 30 µM (inactive)	> 30 µM (inactive)	> 30 µM (inactive)	> 30 µM (inactive)	–	> 30 µM (inactive)	–
COc1cc2nccc(Oc3ccc(NC(=O)C4(C(=O)Nc5ccc(F)cc5)CC4)cc3)c2cc1OC [CABOZANTINIB]	> 30 µM (inactive)	> 30 µM (inactive)	> 30 µM (inactive)	> 30 µM (inactive)	> 30 µM (inactive)	> 30 µM (inactive)	> 30 µM (inactive)	2.46 µM (active)	> 30 µM (inactive)	–	–
COc1cc2c(Oc3ccc4[nH]c(C)cc4c3F)ncnc2cc1OCCCN1CCCC1 [CEDIRANIB]	> 30 µM (inactive)	–	–	–	–	–	> 30 µM (inactive)	> 30 µM (inactive)	> 30 µM (inactive)	–	–
Cn1c(=O)n(-c2ccc(C(C)(C)C#N)cc2)c2c3cc(-c4cnc5ccccc5c4)ccc3ncc21 [DACTOLISIB]	> 30 µM (inactive)	> 30 µM (inactive)	> 30 µM (inactive)	> 30 µM (inactive)	–	> 30 µM (inactive)	> 30 µM (inactive)	> 30 µM (inactive)	> 30 µM (inactive)	–	–
O=S(=O)(c1cccc2cnccc12)N1CCCNCC1 [FASUDIL]	> 30 µM (inactive)	> 30 µM (inactive)	> 30 µM (inactive)	–	–	–	> 30 µM (inactive)	> 30 µM (inactive)	> 30 µM (inactive)	> 30 µM (inactive)	–
CCc1nc(C(N)=O)c(Nc2ccc(N3CCC(N4CCN(C)CC4)CC3)c(OC)c2)nc1NC1CCOCC1 [GILTERITINIB]	0.451 µM (active)	–	–	> 30 µM (inactive)	0.221 µM (active)	> 30 µM (inactive)	> 30 µM (inactive)	1.3 µM (active)	> 30 µM (inactive)	–	6.74
O=S(=O)(c1cccc2c(O)nccc12)N1CCCNCC1 [HYDROXYFASUDIL]	> 30 µM (inactive)	> 30 µM (inactive)	> 30 µM (inactive)	–	> 30 µM (inactive)	> 30 µM (inactive)	> 30 µM (inactive)	> 30 µM (inactive)	> 30 µM (inactive)	> 30 µM (inactive)	–
C[C@]1(O)C[C@@H](c2nc(-c3ccc4ccc(-c5ccccc5)nc4c3)c3c(N)nccn32)C1 [LINSITINIB]	> 30 µM (inactive)	> 30 µM (inactive)	> 30 µM (inactive)	–	–	–	> 30 µM (inactive)	6.05 µM (active)	> 30 µM (inactive)	–	–
O=C(NOC[C@H](O)CO)c1ccc(F)c(F)c1Nc1ccc(I)cc1F [MIRDAMETINIB]	> 30 µM (inactive)	> 30 µM (inactive)	> 30 µM (inactive)	> 30 µM (inactive)	–	> 30 µM (inactive)	> 30 µM (inactive)	> 30 µM (inactive)	> 30 µM (inactive)	> 30 µM (inactive)	–
N#CCNC(=O)c1ccc(-c2ccnc(Nc3ccc(N4CCOCC4)cc3)n2)cc1 [MOMELOTINIB]	> 30 µM (inactive)	> 30 µM (inactive)	> 30 µM (inactive)	> 30 µM (inactive)	–	> 30 µM (inactive)	> 30 µM (inactive)	> 30 µM (inactive)	> 30 µM (inactive)	> 30 µM (inactive)	–
CC1(C)CNc2cc(NC(=O)c3cccnc3NCc3ccncc3)ccc21 [MOTESANIB]	> 30 µM (inactive)	–	–	–	–	–	> 30 µM (inactive)	1.04 µM (active)	> 30 µM (inactive)	–	–
CN(c1ncccc1CNc1nc(Nc2ccc3c(c2)CC(=O)N3)ncc1C(F)(F)F)S(C)(=O)=O [PF-00562271]	> 30 µM (inactive)	3.98 µM (active)	> 30 µM (inactive)	1.24 µM (active)	> 30 µM (inactive)	–	> 30 µM (inactive)	> 30 µM (inactive)	> 30 µM (inactive)	–	–
CC(C)CC(=O)Nc1[nH]nc2c1CN(C(=O)C1CCN(C)CC1)C2(C)C [PHA-793887]	> 30 µM (inactive)	> 30 µM (inactive)	> 30 µM (inactive)	–	> 30 µM (inactive)	> 30 µM (inactive)	> 30 µM (inactive)	> 30 µM (inactive)	> 30 µM (inactive)	> 30 µM (inactive)	–
Cn1cnc2c(F)c(Nc3ccc(Br)cc3Cl)c(C(=O)NOCCO)cc21 [SELUMETINIB]	> 30 µM (inactive)	–	–	–	–	–	> 30 µM (inactive)	> 30 µM (inactive)	> 30 µM (inactive)	–	–
COc1cc2c(N3CCN(C(=O)Nc4ccc(OC(C)C)cc4)CC3)ncnc2cc1OCCCN1CCCCC1 [TANDUTINIB]	> 30 µM (inactive)	–	–	–	–	–	> 30 µM (inactive)	> 30 µM (inactive)	> 30 µM (inactive)	–	–
Cc1cc(-c2cc(OC(=O)c3ccccc3)ccc2Cl)cc2nnc(Nc3ccc(OCCN4CCCC4)cc3)nc12 [TG100-801]	> 30 µM (inactive)	–	> 30 µM (inactive)	> 30 µM (inactive)	> 30 µM (inactive)	> 30 µM (inactive)	> 30 µM (inactive)	> 30 µM (inactive)	> 30 µM (inactive)	> 30 µM (inactive)	–
